The results in this text go back to article PMC12520178, “Turn-engineering tunes the conformational rigidity of β-hairpin AMPs in achieving membrane selectivity and killing drug-resistant ESKAPE pathogens” (Chemical Science, 2025).

Converted amounts (≈) assume the structure as drawn. Where a SMILES comes first, the peptide text is derived from it. [ ]: non-standard residue; d: D form. dNMeR = CN[C@H](CCCNC(=N)N)C(=O)O

Series [1] has as its system Acinetobacter baumannii. It is filed as cell-based.
The subject of series [2] is polymyxin B-resistant A. baumannii. Conditions: induced polymyxin B-resistant A. baumannii.
The test system of series [3] is polymyxin B-resistant P. aeruginosa. The conditions noted are these: induced polymyxin B-resistant P. aeruginosa.
Series [4] has as its system Escherichia coli. The class given is cell-based.
A short description of series [5]: Acute in-vivo toxicity assessment. The conditions noted are these: mice.
Series [6] is described as follows: Rapid equilibrium dialysis (RED) plasma protein binding. Conditions: plasma spiked with 100 μM peptide, buffer pH 7.4, 37 °C, 4 h, HPLC.
Series [7] relates to Staphylococcus aureus. Put plainly: microbe, parasite or virus in culture. The class given is cell-based.
Series [8] has as its system Klebsiella pneumoniae. It is filed as cell-based.
Series [9] concerns Pseudomonas aeruginosa. It is filed as cell-based.
In series [10] the target is Proteinase K (Parengyodontium album, UniProt P06873). Put plainly: Proteolytic digestion with Proteinase K. It is filed as in vitro ADME. Conditions: 100 µM peptide, 1X TBS pH 7.5, ratio 1:200, 37 °C, HPLC, 0 to 720 min. The procedure:
Figure S15: Proteolytic degradation profiles of a. 4d and b. 4f after incubation with Proteinase K. The five overlaid chromatograms represent […] different time-points: 0 min, 2 min, 60 min, 480 min and 720 min. The identity of the peptide at different time points were monitored using MALDI-TO F.
Figure S16: a. PI uptake by A. baumannii and S. aureus, when treated with different concentrations of 4f for 10 min, monitored using flow-cytometry. b. SEM images of untreated control cells and 5 times of […]
Radial Distribution Function
The radial distribution function (g(r)) was computed to investigate the local density of specific lipid headgroups around key peptide residues. […]
The interaction energy between the peptide and membrane components was computed to quantify the binding affinity and identify the driving forces for the interaction. Using GROMACS, the production trajectories were re-analyzed by defining energy groups for the protein and different membrane components. […]
The metabolic stability of peptides (1,1d,1f and 3,3d,3f) were evaluated against two proteases-chymotrypsin and trypsin at a concentration of 100 µM. The metabolic stability of 4f was evaluated by incubating 100 µM of peptide with a more promiscuous enzyme i.e. Proteinase K. Peptides were incubated with different enzyme to peptide ratio for different time intervals at 37 ° C. […]

The test system of series [11] is human peripheral blood mononuclear cells (PBMCs). Conditions: 24 h, 40.
The subject of series [12] is human red blood cells. The conditions noted are these: red cells of human.

Chain of Proteinase K (P06873 106-384): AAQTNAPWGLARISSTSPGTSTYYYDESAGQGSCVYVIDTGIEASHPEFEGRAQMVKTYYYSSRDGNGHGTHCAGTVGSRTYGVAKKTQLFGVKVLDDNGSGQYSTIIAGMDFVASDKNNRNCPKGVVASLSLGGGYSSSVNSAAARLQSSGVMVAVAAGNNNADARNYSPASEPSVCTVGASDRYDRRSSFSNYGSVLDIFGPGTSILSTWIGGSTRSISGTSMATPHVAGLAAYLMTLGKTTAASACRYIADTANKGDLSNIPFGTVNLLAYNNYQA

For `CC[C@@H](C)[C@@H](NC(=O)[C@@H](CCCNC(=N)N)N(C)C(=O)[C@H](C)NC(=O)[C@@H](Cc1ccc(O)cc1)NC(=O)[C@H](NC(=O)[C@H](NC(=O)[C@@H](CCCNC(=N)N)NC(=O)[C@@H](Cc1ccccc1)NC(=O)[C@H](NC(=O)[C@@H](Cc1c[nH]c2ccccc12)NC(=O)[C@H](N)CCCCN)[C@H](C)O)C(C)C)[C@H](C)O)C(=O)N[C@@H](C(=O)N[C@H](Cc1ccc(O)cc1)C(=O)N[C@H](CCCNC(=N)N)C(=O)N[C@H](CCCNC(=N)N)C(=O)N[C@@H](C(=O)N[C@H](CCCNC(=N)N)C(N)=O)[C@H](C)O)[C@H](C)O` [4f] (H-[dK][dW][dT][dF][dR][dV][dT][dY]A[dNMeR][dI][dT][dY][dR][dR][dT][dR]-NH2), in series [1], the “MIC (μM) ab” value turned out to be 1.6 µM (≈ 3.66 µg/mL). The results for the MIC in series [2] and in series [3] were 1.6 µM (≈ 3.66 µg/mL) and 2.4 µM (≈ 5.49 µg/mL), respectively. Further, in series [4], the “MIC90” value turned out to be 0.4 µM (≈ 0.915 µg/mL). In addition, the “MIC (μM) ec” value in series [4] turned out to be 0.4 µM (≈ 0.915 µg/mL). The “signs of acute toxicity” value is “no signs of toxicity” in series [5] (10 mg kg^−1, intraperitoneally, monitored till 72 h); “mild symptoms such as wrinkled skin and loss in body weight” in series [5] (20 mg kg^−1, intraperitoneally, at 48 h, transient); “Visible signs of toxicity such as wrinkled skin, poor motility, and loss in body weight” in series [5] (40 mg kg^−1, intraperitoneally). In addition, the mortality entry in [5] (10, 20 and 40 mg kg^−1, intraperitoneally) was “none of the doses led to mortality”. In [6], the plasma protein binding entry is recorded as “very high plasma protein binding”. Moreover, the “MIC (μM) sa” value in series [7] turned out to be 0.8 µM (≈ 1.83 µg/mL). The “MIC (μM) kp” value in [8] stood at 1.6 µM (≈ 3.66 µg/mL). In series [9], the “MIC (μM) pa” value was 1.2 µM (≈ 2.75 µg/mL). Besides, in series [10], the protection against proteolysis result was “total protection against proteolysis”. The “median viability of PBMCs” value in [11] was roughly 85%. In series [12], the “MHC10 (μM), minimum hemolytic concentration” value was found to be 50 µM.
